# Test results: PMC8428568, “Discovery of re-purposed drugs that slow SARS-CoV-2 replication in human cells” (PLoS Pathogens, 2021)
# Where a name gives a salt, the structure may show the parent alone. Read-outs that look alike come from different tables or passages of the source.
# What was measured:
# [1] = tested on: Vero cells
# [2] = tested on: recombinant NLuc; assay type: biochemical
# [3] = tested on: SARS-CoV-2-ΔOrf7a-NLuc virus; assay: microbe, parasite or virus in culture; assay type: cell-based; details: for activity at 10 µM: Severe acute respiratory syndrome coronavirus 2, Vero, 72 h, read-out: Mean relative luminescence (n=4)
# [4] = tested on: SARS-CoV-2-ΔOrf7a-NLuc virus; assay: microbe, parasite or virus in culture; assay type: cell-based
# [5] = tested on: HUH7 cells
# [6] = Vero cells, 10 μM, 1 = DMSO-treated infected cells
# [7] = recombinant NLuc activity relative to DMSO
# [8] = recombinant NLuc, first read column
# [9] = recombinant NLuc, fourth read column
# [10] = recombinant NLuc, third read column
# [11] = Vero screen, […], relative luminescence
# [12] = […], 1 = untreated, 0 = total inhibition
# [13] = HUH7 screen, […], relative luminescence
Compound,"PrestoBlue relative viability [1, 6]",PrestoBlue relative viability ([1]; Vero screen),"Relative Recombinant NLUC [2, 7]","Reads Counts per second (read 1) [2, 8] [Counts per second]","Reads Counts per second (read 4) [2, 9] [Counts per second]","Reads Counts per second (read 3) [2, 10] [Counts per second]",% activity in Vero 100PFU screen [3] [%],"Mean relative luminescence (n=4) [3, 11]","Mean relative luminescence (n=4) [4, 13]",PrestoBlue relative viability ([5]; HUH7 screen),"activity at 10 µM [3, 12] [%]",also measured
COc1nc2ccc(Br)cc2cc1[C@@H](c1ccccc1)[C@@](O)(CCN(C)C)c1cccc2ccccc12.O=C(O)/C=C/C(=O)O [Bedaquiline fumarate],1.113,1.113,0.9227,351974,338630,351293,3.58,0.01053,0.1084,0.5224,–,"Reads Counts per second (read 2) ([2]; recombinant NLuc): 352561 Counts per second; Mean relative luminescence (n=4) [3, 12]: 0.01053"
O=C(/C=C\n1cnc(-c2cc(C(F)(F)F)cc(C(F)(F)F)c2)n1)NNc1cnccn1 [KPT-330],0.581,0.581,1.022,378225,381493,389989,3.73,0.005454,0.05859,0.7102,0.545,–
CC[C@H](C)C(=O)O[C@H]1C[C@@H](C)C=C2C=C[C@H](C)[C@H](CC[C@@H]3C[C@@H](O)CC(=O)O3)[C@H]21 [Lovastatin],0.5479,0.5479,0.9319,351803,349914,353101,9,0.0828,0.08758,1.075,8.28,–
CCOC(=O)C1=C(C)NC(C)=C(C(=O)OC)C1c1cccc([N+](=O)[O-])c1 (stereo not drawn) [Nitrendipine],0.8649,0.8649,0.06915,26271,26141,26096,8.56,0.07211,0.0007292,0.6545,7.21,–
"COC(=O)C1=C(C)NC(C)=C(C(=O)OC(C)C)C1c1cccc2nonc12 (stereo not drawn) [Isradipine (Dynacirc), Isradipine]",0.6155,0.6155,0.04959,19176,18431,18561,6,0.03922,0.001355,0.6762,3.92,–
COCCOC(=O)C1=C(C)NC(C)=C(C(=O)OC/C=C/c2ccccc2)C1c1cccc([N+](=O)[O-])c1 (stereo not drawn) [Cilnidipine],0.8017,0.8017,0.07521,28828,27971,28106,0.696,0.0003902,0.00182,0.797,0.039,–
"COc1cc2nccc(Oc3ccc(NC(=O)C4(C(=O)Nc5ccc(F)cc5)CC4)cc3)c2cc1OC [Cabozantinib malate (XL184), Cabozantinib malate]",0.5119,0.5119,0.8679,333265,328687,329153,12,0.1026,0.03412,0.8011,10.3,–
CN(C)CC/C=C1/c2ccccc2Sc2ccc(Cl)cc21.Cl [Chlorprothixene (hydrochloride)],0.8299,0.8299,0.9574,359664,361186,361391,4.28,0.0137,0.03176,0.7623,–,"Mean relative luminescence (n=4) [3, 12]: 0.0137"
COc1cccc2c1C(=O)c1c(O)c3c(c(O)c1C2=O)C[C@@](O)(C(C)=O)C[C@@H]3O[C@H]1C[C@H](N)[C@H](O)[C@H](C)O1 [Daunorubicin HCl],0.6965,0.6965,0.8615,319222,328432,327409,5,0.02101,0.006058,0.5186,2.1,–
CC(C)n1c(/C=C/C(O)CC(O)CC(=O)O)c(-c2ccc(F)cc2)c2ccccc21 (stereo not drawn) [Fluvastatin Sodium],0.5553,0.5553,0.8994,344916,335899,339204,6,0.05005,0.05448,1.3017,5.01,–
OCCOc1ccc(/C(=C(/CCCl)c2ccccc2)c2ccccc2)cc1 [Ospemifene],–,–,–,–,–,–,4,–,–,–,–,PrestoBlue relative viability ([1]; African green monkey): 0.6863; Reads Counts per second (read 1) [2]: 356755 Counts per second; Reads Counts per second (read 3) [2]: 358779 Counts per second; Reads Counts per second (read 4) [2]: 352991 Counts per second; Relative Recombinant NLUC [2]: 0.9407; activity at 10 µM [3]: 1.57%; Mean relative luminescence (n=4) [4]: 0.1449; PrestoBlue relative viability ([5]; human): 1.203
CCCCc1oc2ccccc2c1C(=O)c1cc(I)c(OCCN(CC)CC)c(I)c1 [Amiodarone HCl],0.8378,0.8378,0.9671,364410,366409,365644,–,0.03182,0.03404,0.9633,3.18,Reads Counts per second (read 2) ([2]; recombinant NLuc): 365102 Counts per second
O=C(c1ccc(OCCN2CCCCC2)cc1)c1c(-c2ccc(O)cc2)sc2cc(O)ccc12 [Raloxifene HCl],0.579,0.579,0.8812,334037,335545,331016,6,0.02628,0.03646,0.5413,2.63,–
COC(=O)C1=C(C)NC(C)=C(C(=O)O[C@@H]2CCCN(Cc3ccccc3)C2)[C@@H]1c1cccc([N+](=O)[O-])c1.Cl (racemic) [Benidipine HCl],0.8086,0.8086,0.1313,50508,49177,49185,1.81,0.003673,0.003821,0.6609,–,"Reads Counts per second (read 2) ([2]; recombinant NLuc): 49563 Counts per second; Mean relative luminescence (n=4) [3, 12]: 0.003673"
"Cl.Cl.Cl.O[C@@H](COc1cccc2ncccc12)CN1CCN([C@@H]2c3ccccc3[C@@H]3[C@H](c4ccccc42)C3(F)F)CC1 [LY335979 (Zosuquidar 3HCL), Zosuquidar 3HCL]",0.5866,0.5866,0.9362,352212,351420,356783,3,0.008621,0.08231,0.6203,–,"Mean relative luminescence (n=4) [3, 12]: 0.008621"
